According to US9458507B1, “Antipsychotic treatment based on SNP genotype” (Vanda Pharmaceuticals, Inc., priority 2007, dated 2016):

Legend:
[1] = test system: patients with diagnoses of schizophrenia; assay: randomized, double-blind, placebo- and ziprasidone-controlled, 28-day study of iloperidone with whole genome association study; change in PANSS-T by SNP genotype; type: in vivo, human; conditions: for mean of change in PANSS-T: iloperidone group, MMRM analysis; for Odds Ratio of Improvement ≧ 20% in PANSS-T: iloperidone-treated patients, LOCF data
Protocol: The clinical trial evaluated the efficacy of iloperidone in treating patients with diagnosed schizophrenia.
Patients 18 to 65 years of age with diagnoses of schizophrenia according to the Diagnostic and Statistical Manual of Mental Disorders, 4th Edition were eligible to participate in a randomized, double-blind, placebo- and ziprasidone-controlled, 28-day study of the efficacy and safety of iloperidone. Patients were randomly assigned to iloperidone 12 mg twice a day, ziprasidone 80 mg twice a day (active control), or placebo. The primary efficacy variable was change from baseline to the last scheduled observation in Positive and Negative Syndrome Scale total score (PANSS-T) using the data from the short-term, double-blind phase. A secondary objective was to identify genetic markers predictive of response to iloperidone.
Blood samples were collected, and DNA was extracted from 432 of 457 patients who consented to the optional WGAS, including 218 patients administered iloperidone and 102 administered placebo.
To independently discover and confirm biomarkers of iloperidone efficacy, patients administered iloperidone were randomly separated and genotyped for the WGAS into two groups (Group 1 (discovery phase) and Group 2 (confirmatory phase)) of equal size. PROC SURVEYSELECT (SAS Institute, Cary, N.C.) was used to stratify the groups to have approximately equal numbers of patients of each race and each sex.
In Group 1, each SNP was tested for potential association between genotype and change in PANSS-T for patients in the low 30% and the high 30% extremes of the distribution of Day 28 last-observation-carried-forward (LOCF) data. Analysis was performed using a truncated nonparametric measure analysis of variance (ANOVA), based on the Kruskal-Wallis test, with genotypes as the grouping variables. Based on a significant omnibus test and ad hoc contrasts, the results that produced the most parsimonious genetic model (e.g., homozygous for one allele vs. all other genotypes (e.g., AA vs. AB and BB), heterozygous vs. homozygous genotypes (AB vs. AA and BB)) dictated the genetic model that was tested in the confirmatory phase. For ease of global description, given that each SNP might have a different parsimonious model, the genotypes of all SNPs associated with positive iloperidone response were referred to as genotype class C1, and the remaining genotypes for that SNP were referred to as genotype class C2. If no parsimonious genetic model was obtained for a SNP, it was not tested further. Only the subset of 100 SNPs with the lowest P values for the contrasts that defined C1 and C2 was tested in the confirmatory phase.
Two separate methods were applied. LOCF data for PANSS-T at Day 28 were used in a one-way ANOVA of each SNP, testing each genotype class against the class of the other two genotypes combined. Results from the ANOVA dictated the parsimonious genetic model to be used for additional testing. Mixed Model Repeated Measures (MMRM) analysis was subsequently conducted using the parsimonious genetic model of each SNP in the MMRM model, as used for the analysis of the clinical trial results. In the MMRM analysis, only the best genetic model of each SNP, as determined in the ANOVA LOCF data analysis, was used.
Three analyses were performed. Analysis 1 was a two-phase approach in which DNA samples were separated into two groups. The first group consisted of 50% of the samples for a discovery phase in which only the top 30% and the bottom 30% of the change in PANSS-T (LOCF data) were used, and the second was a hold-out group consisting of the other 50% for a confirmatory phase. Only the 100 SNPs with the lowest P values in the discovery phase were subsequently tested.
Analysis 2 was an ANOVA of LOCF data for all iloperidone-treated patients in a single-phase approach.
Analysis 3 was an MMRM analysis of all patients using the most parsimonious genetic model of each SNP. […]

[2] = target: 5-HT, receptor (Homo sapiens, UniProt P34969); conditions: cited from earlier work
Sequence of 5-HT, receptor (P34969 whole entry): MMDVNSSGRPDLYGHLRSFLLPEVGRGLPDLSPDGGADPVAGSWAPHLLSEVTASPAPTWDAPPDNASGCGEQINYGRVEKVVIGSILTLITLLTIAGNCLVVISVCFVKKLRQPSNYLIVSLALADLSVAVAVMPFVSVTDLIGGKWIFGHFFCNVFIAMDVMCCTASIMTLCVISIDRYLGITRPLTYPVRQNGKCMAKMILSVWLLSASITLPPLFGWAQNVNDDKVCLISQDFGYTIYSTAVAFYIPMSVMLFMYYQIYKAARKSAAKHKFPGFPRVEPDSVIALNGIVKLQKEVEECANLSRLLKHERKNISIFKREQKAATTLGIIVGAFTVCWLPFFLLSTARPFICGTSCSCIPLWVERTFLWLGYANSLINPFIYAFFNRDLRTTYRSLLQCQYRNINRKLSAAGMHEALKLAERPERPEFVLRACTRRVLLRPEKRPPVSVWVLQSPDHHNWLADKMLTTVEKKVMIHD

Compound: COc1cc(C(C)=O)ccc1OCCCN1CCC(c2noc3cc(F)ccc23)CC1 [iloperidone, 1-[4-[3-[4-(6-flouro-1,2-benzisoxazol-3-yl)-1-piperidinyl]propoxy]-3-methoxyphenyl] ethanone]
- mean of change in PANSS-T ([1]; rs875326 (TNR) genotype non-AG (homozygotes, highest response class)): −16.39 (±4.35)
- Odds Ratio of Improvement ≧ 20% in PANSS-T ([1]; rs875326 (TNR) non-AG vs AG): 3.57
- Odds Ratio of Improvement ≧ 20% in PANSS-T ([1]; rs2513265 (GRIA4) non-TT vs TT): 2.43
- Odds Ratio of Improvement ≧ 20% in PANSS-T ([1]; rs4528226 (NUDT9P1) GT vs non-GT): 3.00
- mean of change in PANSS-T ([1]; rs4528226 (NUDT9P1) genotype GT (highest response class)): −18.73 (±3.99)
- Odds Ratio of Improvement ≧ 20% in PANSS-T ([1]; rs7837682 (GRFA2) AA vs non-AA): 2.95
- mean of change in PANSS-T ([1]; rs7837682 (GRFA2) genotype AA (highest response class)): −15.95 (±4.23)
- Odds Ratio of Improvement ≧ 20% in PANSS-T ([1]; rs9643483 (XKR4) non-GG vs GG): 3.42
- Odds Ratio of Improvement ≧ 20% in PANSS-T ([1]; rs11851892 (NPAS3) non-GG vs GG): 2.74
- improvement in PANSS-T greater than the mean response of all iloperidone-treated patients ([1]; rs11851892 non-GG genotype vs all iloperidone-treated patients): 68%
- affinity for the 5-HT, receptor [2]: high affinity
